Tests used:
[1] = target: T1, recombinant human ALK5 (TGF-βR1) protein (Homo sapiens, UniProt P36897); test: Biochemical ALK5 (TGF-βR1) assay to measure pKi (LANCE Ultra ULight kinase assay); details: apparent pKi from pIC50 by Cheng-Prusoff, read-out: ALK5 pKi (converted)
T1 construct: purchased Life Technologies PR9075A
T1 sequence (P36897 34-503): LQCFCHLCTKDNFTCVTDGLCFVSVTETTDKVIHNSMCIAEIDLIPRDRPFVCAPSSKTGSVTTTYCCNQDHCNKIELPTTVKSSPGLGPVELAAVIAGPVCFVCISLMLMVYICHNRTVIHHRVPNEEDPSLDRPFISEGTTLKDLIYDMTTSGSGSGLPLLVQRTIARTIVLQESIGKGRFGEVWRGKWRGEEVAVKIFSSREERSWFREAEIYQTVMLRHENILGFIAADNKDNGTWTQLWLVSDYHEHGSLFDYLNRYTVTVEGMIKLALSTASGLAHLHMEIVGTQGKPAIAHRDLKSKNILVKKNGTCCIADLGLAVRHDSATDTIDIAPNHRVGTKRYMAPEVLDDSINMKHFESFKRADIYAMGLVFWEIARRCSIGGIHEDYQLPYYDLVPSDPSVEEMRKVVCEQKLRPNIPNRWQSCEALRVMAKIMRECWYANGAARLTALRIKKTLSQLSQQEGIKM
Method in brief: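 Compounds (10 μM to 25 pM) preincubated 60 minutes at room temperature with enzyme, then reaction run 60 minutes at 37° C with ATP added as 125 μM (5× final). Stopped with EDTA plus Eu-anti-phospho-Topoisomerase 2-alpha (Thr1342) antibody, TR-FRET read at 665 nm; pIC50 converted to pKi via Cheng-Prusoff.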

[2] = tested on: TGF-β-stimulated SMAD3 phosphorylation in BEAS-2B cells; test: Cellular ALK5 potency assay, inhibition of TGF-β stimulated pSMAD3 formation in BEAS-2B cells; format: cell-based; details: Homo sapiens; inhibition of TGF-β stimulated pSMAD3 formation, BEAS-2B cells; read-out: BEAS2B pIC50 (converted)
Method in brief: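 SMAD3 phosphorylation was measured by AlphaLISA after 30 min TGF-β stimulation (10 ng/mL final) of BEAS-2B cells preincubated 1 h with compound at 37 °C. Results given as pIC50.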

| SMILES | Ki [1] [nM] | IC50 [2] [nM] |
| --- | --- | --- |
| Cc1cccc(-c2n[nH]cc2-c2ccc3ncc(-c4ccn(C)n4)cc3n2)n1 [Compound 692, 7-(1-methylpyrazol-3-yl)-2-[3-(6-methyl-2-pyridyl)-1H-pyrazol-4-yl]-1,5-naphthyridine] | < 0.0316 | < 20 |
| Cc1nc(-c2n[nH]cc2-c2ccc3ncc(-c4nnn5c4NCCC5)cc3n2)ccc1F [Compound 263, 2-[3-(5-fluoro-6-methyl-2-pyridyl)-1H-pyrazol-4-yl]-7-(4,5,6,7-tetrahydrotriazolo[1,5-a]pyrimidin-3-yl)-1,5-naphthyridine] | 0.0398 to 0.316 | 25.1 to 158 |
| Cc1cccc(-c2n[nH]cc2-c2ccc3ncc(-c4ccc(C5CCCN(C(C)C)C5)cc4)cc3n2)n1 (centres unmarked) [Compound 265, 7-[4-(1-isopropyl-3-piperidyl)phenyl]-2-[3-(6-methyl-2-pyridyl)-1H-pyrazol-4-yl]-1,5-naphthyridine] | 0.0398 to 0.316 | 200 to 1260 |
| Cc1cccc(-c2n[nH]cc2-c2ccc3ncc(NCCN4CCOCC4)cc3n2)n1 [Compound 239, 6-[3-(6-methyl-2-pyridyl)-1H-pyrazol-4-yl]-N-(2-morpholinoethyl)-1,5-naphthyridin-3-amine] | 0.0398 to 0.316 | 25.1 to 158 |
| Cc1nc(-c2n[nH]cc2-c2ccc3ncc(N4CCCNCC4)cc3c2)ccc1F [Compound 209, 3-(1,4-diazepan-1-yl)-6-[3-(5-fluoro-6-methyl-2-pyridyl)-1H-pyrazol-4-yl]quinoline] | 0.0398 to 0.316 | 25.1 to 158 |
| Cc1cccc(-c2n[nH]cc2-c2ccc3ncc(N4CCN(CCO)CC4)cc3n2)n1 [Compound 639, 2-[4-[6-[3-(6-methyl-2-pyridyl)-1H-pyrazol-4-yl]-1,5-naphthyridin-3-yl]piperazin-1-yl]ethanol] | < 0.0316 | 25.1 to 158 |
| Cc1cccc(-c2c(-c3ccc4ncc(N5CCCNCC5)cc4c3)nnn2Cc2ccccc2)n1 [Compound 360, 6-[1-benzyl-5-(6-methyl-2-pyridyl)triazol-4-yl]-3-(1,4-diazepan-1-yl)quinoline] | 0.398 to 3.16 | 1580 to 10000 |
| Cc1cccc(-c2n[nH]cc2-c2ccc3nccc(C(=O)NCCCCCCNC(=O)[C@@H]4CCCN4C(=O)CN4CCOCC4)c3n2)n1 (racemic) [Compound 809, 6-[3-(6-methyl-2-pyridyl)-1H-pyrazol-4-yl]-N-[6-[[rac-(2S)-1-(2-morpholinoacetyl)pyrrolidine-2-carbonyl]amino]hexyl]-1,5-naphthyridine-4-carboxamide] | 0.398 to 3.16 | 200 to 1260 |
| Cc1cccc(-c2n[nH]cc2-c2ccc3ncc(-c4ccc(=O)n(C)c4)cc3n2)n1 [Compound 345, 1-methyl-5-[6-[3-(6-methyl-2-pyridyl)-1H-pyrazol-4-yl]-1,5-naphthyridin-3-yl]pyridin-2-one] | < 0.0316 | < 20 |
| Cc1cccc(-c2nnn(Cc3ccccc3)c2-c2ccc3ncc(N4CCNCC4)cc3c2)n1 [Compound 382, 6-[3-benzyl-5-(6-methyl-2-pyridyl)triazol-4-yl]-3-piperazin-1-yl-quinoline] | 0.0398 to 0.316 | 25.1 to 158 |
| Cc1cccc(-c2n[nH]cc2-c2ccc3ncc(N4CCC(N5CCCC5)C4)cc3n2)n1 (centres unmarked) [Compound 336, 2-[3-(6-methyl-2-pyridyl)-1H-pyrazol-4-yl]-7-(3-pyrrolidin-1-ylpyrrolidin-1-yl)-1,5-naphthyridine] | < 0.0316 | 25.1 to 158 |
| Cc1cccc(-c2n[nH]cc2-c2ccc3ncc(N4CCCN(C)C(C)C4)cc3n2)n1 (racemic) [Compound 19, 2-[3-(6-methyl-2-pyridyl)-1H-pyrazol-4-yl]-7-[rac-(3S)-3,4-dimethyl-1,4-diazepan-1-yl]-1,5-naphthyridine] | 0.0398 to 0.316 | 25.1 to 158 |

Now from value to compound, other results behind:

| Ki [1] [nM] | SMILES | IC50 [2] [nM] |
| --- | --- | --- |
| 0.0398 to 0.316 | Cc1cccc(-c2[nH]cnc2-c2ccc3ncc(C(=O)O[C@H]4CC[C@H](N)CC4)cc3c2)n1 [Compound 763, (4-aminocyclohexyl) 6-[5-(6-methyl-2-pyridyl)-1H-imidazol-4-yl]quinoline-3-carboxylate] | 25.1 to 158 |
| 0.0398 to 0.316 | Cc1cccc(-c2[nH]cnc2-c2ccc3ncc(N4CCCC5(CNC5)C4)cc3c2)n1 [Compound 280, 3-(2,6-diazaspiro[3.5]nonan-6-yl)-6-[5-(6-methyl-2-pyridyl)-1H-imidazol-4-yl]quinoline] | 200 to 1260 |
| 0.398 to 3.16 | Cc1cccc(-c2[nH]cnc2-c2ccc3ncc(C(=O)O[C@@H]4CCNC4)cc3c2)n1 [Compound 1149, [(3R)-pyrrolidin-3-yl] 6-[5-(6-methyl-2-pyridyl)-1H-imidazol-4-yl]quinoline-3-carboxylate] | 200 to 1260 |
| < 0.0316 | Cc1nc(-c2n[nH]cc2-c2ccc3ncc(-c4cnn(C[C@H]5CC[C@H](N)CC5)c4)cc3n2)ccc1F [Compound 551, 4-[[4-[6-[3-(5-fluoro-6-methyl-2-pyridyl)-1H-pyrazol-4-yl]-1,5-naphthyridin-3-yl]pyrazol-1-yl]methyl]cyclohexanamine] | 25.1 to 158 |
| 0.0398 to 0.316 | Cc1cccc(-c2n[nH]cc2-c2ccc3ncc(CO)cc3n2)n1 [Compound 126, [6-[3-(6-methyl-2-pyridyl)-1H-pyrazol-4-yl]-1,5-naphthyridin-3-yl]methanol] | 25.1 to 158 |
| 0.0398 to 0.316 | Cc1cccc(-c2[nH]cnc2-c2ccc3ncc(C(=O)OC[C@H]4CC[C@H](N)CC4)cc3c2)n1 [Compound 765, (4-aminocyclohexyl)methyl 6-[5-(6-methyl-2-pyridyl)-1H-imidazol-4-yl]quinoline-3-carboxylate] | 25.1 to 158 |
| 0.0398 to 0.316 | Cc1cccc(-c2[nH]cnc2-c2ccc3ncc(-c4csc(C(=O)OC5CNC5)n4)cc3c2)n1 [Compound 1046, azetidin-3-yl 4-[6-[5-(6-methyl-2-pyridyl)-1H-imidazol-4-yl]-3-quinolyl]thiazole-2-carboxylate] | 25.1 to 158 |
| 0.398 to 3.16 | Cc1cccc(-c2[nH]cnc2-c2ccc3ncc(C(=O)OC[C@@H]4CCCCN4)cc3c2)n1 [Compound 883, (S)-piperidin-2-ylmethyl 6-(5-(6-methylpyridin-2-yl)-1H-imidazol-4-yl)quinoline-3-carboxylate] | 25.1 to 158 |
| 0.0398 to 0.316 | Cc1cccc(-c2[nH]cnc2-c2ccc3ncc(-c4nc(C(=O)O[C@@H]5CCNC5)cs4)cc3c2)n1 [Compound 743, [(3R)-pyrrolidin-3-yl]2-[6-[5-(6-methyl-2-pyridyl)-1H-imidazol-4-yl]-3-quinolyl]thiazole-4-carboxylate] | 25.1 to 158 |
| 0.398 to 3.16 | Cc1cccc(-c2[nH]cnc2-c2ccc3ncc(-c4nccc(C(=O)O)n4)cc3c2)n1 [Compound 1109, 2-[6-[5-(6-methyl-2-pyridyl)-1H-imidazol-4-yl]-3-quinolyl]pyrimidine-4-carboxylic acid] | 1580 to 10000 |
| < 0.0316 | Cc1cccc(-c2n[nH]cc2-c2ccc3ncc(C4=CCCC4)cc3n2)n1 [Compound 88, 7-(cyclopenten-1-yl)-2-[3-(6-methyl-2-pyridyl)-1H-pyrazol-4-yl]-1,5-naphthyridine] | < 20 |
| 0.0398 to 0.316 | Cc1cccc(-c2[nH]cnc2-c2ccc3ncc(-c4nc(C(=O)O[C@H]5CCNC5)cs4)cc3c2)n1 [Compound 748, (S)-pyrrolidin-3-yl 2-(6-(5-(6-methylpyridin-2-yl)-1H-imidazol-4-yl)quinolin-3-yl)thiazole-4-carboxylate] | 25.1 to 158 |
| 0.398 to 3.16 | CN[C@H]1CC[C@H](OC(=O)c2ccnc3ccc(-c4cn[nH]c4-c4cccc(C)n4)cc23)CC1 [Compound 1179, [4-(methylamino)cyclohexyl] 6-[5-(6-methyl-2-pyridyl)-1H-pyrazol-4-yl]quinoline-4-carboxylate] | 25.1 to 158 |
| 3.98 to 31.6 | Cc1cccc(-c2[nH]cnc2-c2ccc3ncc(C(=O)O[C@H]4CCCC[C@@H]4N)cc3c2)n1 [Compound 879, (1S,2S)-2-aminocyclohexyl 6-(5-(6-methylpyridin-2-yl)-1H-imidazol-4-yl)quinoline-3-carboxylate] | 25.1 to 158 |
| 0.0398 to 0.316 | Cc1cccc(-c2[nH]ncc2-c2ccc3ncc(C(=O)OCCN4C[C@@H](C)N[C@@H](C)C4)cc3c2)n1 [Compound 1238, 2-[(3S,5R)-3,5-dimethylpiperazin-1-yl]ethyl 6-[5-(6-methyl-2-pyridyl)-1H-pyrazol-4-yl]quinoline-3-carboxylate] | 25.1 to 158 |
| 0.0398 to 0.316 | Cc1cccc(-c2[nH]cnc2-c2ccc3ncc(-c4ccc(C(=O)OC[C@@H]5CCCCN5)cn4)cc3c2)n1 [Compound 1165, [(2S)-2-piperidyl]methyl 6-[6-[5-(6-methyl-2-pyridyl)-1H-imidazol-4-yl]-3-quinolyl]pyridine-3-carboxylate] | 25.1 to 158 |

From US11590116B2 (THERAVANCE BIOPHARMA R&D IP, LLC, priority 2019, dated 2023)
